# Legend:
# H9-MSCs = assay: Gene expression by qRT-PCR immediately post-thaw; format: cell-based, human; conditions: GAPDH internal control, FIG. 23
# Protocol: Certain genes within select gene categories were analyzed using qRT-PCR. H9-MSCs subjected to different freezing approaches were assayed immediately post-thaw for the expression of genes related to trophic factor secretion such as HGF, VEGF, FGF2, CXCL12 (SDF-1α), mesodermal lineage markers TWIST1, TWIST2 (DERMO1), MSX2, the anti-apoptotic marker BCL2, surface markers for cell adhesion such as CD106 and CD54, the osmotic regulator marker GAL-1, and stress-response markers such as EGR1 and NFE2L2 (NRF2).
# Pellets of thawed samples described above were resuspended in QIAZOL lysis agent (Qiagen, Hilden, Germany) for further RNA isolation and processing. […] The purified RNA was quantified using a NANODROP 2000 (Therm Fisher Scientific, Waltham, Mass.) device to determine concentration.
# For qRT-PCR studies, 800 ng of RNA was used for reverse transcription to make cDNA using SuperScript III First-Strand Synthesis System (Thermo Fisher Scientific, Waltham, Mass.). cDNA was diluted to a concentration of 4 ng/μl and real-time qPCR was performed with 10 ng cDNA per 10 μl reaction with QuantiTect SYBR Green PCR Kit (Qiagen, Hilden, Germany) on CFX384 Real-Time PCR detection system (Bio-Rad Laboratories, Inc., Hercules, Calif.). […] were analyzed using the comparative CT method (Schmittgen et al., 2008. Nat Protoc 3:1101-1108) with GAPDH as an internal control gene.
# Jurkat cells = assay: High throughput factorial screening with Linear Mixed Effects statistical analysis of recovery; format: cell-based; conditions: statistical analysis of sugar and cooling rate
# Protocol: In another evaluation, cells were combined with factorial combinations of the components listed in Table 5, using one component from each category. Plates including cells and solutions were frozen at cooling rates of 1′C/min, 3′C/min, 5′C/min, or 10′C/min.
# Recovery was calculated by dividing the number of live cells post thaw—calculated using a control curve correlating calcein-acetoxymethyl (AM) fluorescence to cell count—by the number of live cells seeded pre-freeze (AO/PI counts taken prior to freezing). Recovery was normalized by dividing by the DMSO recovery on each plate, then multiplying by a standard DMSO recovery for each cooling rate. This normalized recovery was used to compare samples between different plates and different cooling rates.
# Statistical analysis of the data was performed using a Linear Effects Model. The model associated with best fit was determined using Bayesian Information Criteria. […] The ten best combinations for Jurkats are summarized in Table 6 below, while the eight best combinations for MSCs are summarized in Table 7.
# High throughput factorial screening experiments were performed on a Biomek Beckman FX 96 liquid handling robot. Briefly, 12.5 μl of an array of additives were transferred to nine 96-well plates containing 12.5 μl of different sugar alcohols. Cells (25 μl) diluted in either a sugar (in a solution of NORMOSOL-R; Hospira, Inc., Lake Forest, L) or a NORMOSOL-R blank solution were transferred to these nine plates to give a final volume of 50 μl in each well. Cells suspended in […] in media were also included as a row of each plate to serve as normalization wells for plate-to-plate comparison.
# When all plate volume transfers were complete, silicone plate covers were used to seal each plate, and plates were transferred to a controlled rate freezer (Kryo 10 Series III, Planer PLC, Middlesex, United Kingdom) and frozen at cooling rates ranging from 1° C./min to 10° C./min. The concentrations of components present in solution are listed in Table 11, and were selected based on values described in literature or solubility limits. Component concentrations were 0 if not listed in a solution.
# Plate samples were also assessed for viability using fluorescence. Briefly, a solution of calcein-AM/propidium iodide was prepared and a volume of 50 μl was added to each sample well of experimental 96-well plates, producing a 1:1 dilution. Plates were protected from light and placed in an incubator for 30 minutes to allow for calcein-AM digestion. A fluorescent plate reader (Synergy HT, BioTek Instruments, Inc., Winooski, Vt.) was used to determine the fluorescence in each well, which was correlated to live and dead cell counts using a control curve.
# Viability was calculated for all samples by dividing the number of live cells by the number of total cells. Recovery was calculated directly by dividing the number of live cells post thaw by the number of live cells pre-freeze. Recovery for 96-well plate samples was further normalized; each experimental sample recovery was divided by the DMSO recovery on the same plate, and then multiplied by the standard DMSO recovery for the cooling rate of each experiment.
# To assess the importance of the four explanatory variables of interest (Sugar, Rate, Additive and Alcohol), without neglecting the variation between each batch and between each plate within the batches, we sought to find the best Linear Mixed Effects (LME) model. […]
Structure (SMILES),CXCL12 expression (H9-MSCs),TWIST2 expression (H9-MSCs),cooling rate at which cells performed better with the sugar (Jurkat cells)
"C[S+](C)[O-] [DMSO, dimethyl sulfoxide]",notable change,elevated,
OC[C@H]1O[C@@](CO)(O[C@H]2O[C@H](CO)[C@@H](O)[C@H](O)[C@H]2O)[C@@H](O)[C@@H]1O [Sucrose],,,10 °C and 1° C./min

# Source: patent US20220030850A1, “CRYOPRESERVATIVE COMPOSITIONS AND METHODS” (REGENTS OF THE UNIVERSITY OF MINNESOTA, priority 2015, published 2022)
